Here are results for three substances from patent publication US20090203877A1, “X-RAY-DENSE CONJUGATE” (Eberhard-Karls-Universitaet Tuebingen Universitaetsklinkum, priority 2006, published 2009).

The test system of data set [1] is human malignant LN18 glioma cells. Briefly: Cell viability / cell death (annexin-V-Alexa 568 binding, propidium iodide, FACS scatter morphology). The following applies: 260 μM, 20 min, substance alone. The class given is cell-based. As to the method:
All measurements were performed on living, non-fixed cells. […] All measurements were performed on living cells. […] All measurements were performed on living cells in triplicates. […] All measurements were performed on living cells.

Data set [2] has as its system human malignant U373 glioma cells. The data set can be described thus: Cell viability / cell death (MTT test, propidium iodide, annexin-V-Alexa 568 binding, FACS scatter morphology). To be noted: for binding of annexin-V-Alexa 568 reagent (phosphatidyl serine) / cytotoxic effects: 260 μM in 0.1% DMSO/PBS; for binding of annexin-V-Alexa 568 reagent (phosphatidyl serine) / cytotoxic effects / cytotoxic effects / signs of cell death: substance alone; for cytotoxic effects / signs of cell death: 260 μM in PBS. The procedure: Human malignant U373-glioma cells were grown to 70% confluency in RPMI-1640 Ready Mix Medium containing L-Glutamine and 10% FBS-Gold (PAA laboratories, Pasching, Austria) at 37° C., 5% CO2 (vol/vol), in 4-well-plates (NUNC, Wiesbaden, Germany) with about 300,000 cells pro well. […] After this, the cells were washed three times with buffer and then incubated with Ready Mix Medium again. Cell viability was then assessed by the addition of methyl-thiazoyl-tetrazolium (MTT) salt (Sigma-Aldrich, Germany) at a concentration of 15 mg/ml. After 20 minutes, the production of formazan was investigated. When blue formazan granules were detected, propidium iodine (PI) was added to the medium (1 μM PI; Molecular Probes, Eugene, Oreg., USA) to detect cells with damaged cell membranes. […] Pictures were taken with a 3-CCD color video camera (MC3254P, Sony, Japan) and the Axiovision Software (Carl Zeiss, Jena, Germany). The intensity of cell fluorescence was recorded at the exposure time necessary for the production of the fluorescence images.
After imaging, Accutase™ (PAA laboratories, Pasching, Austria) was added to the wells to achieve detachment of the cells for further FACS analysis. Fluorescence was measured in a Becton Dickinson FACSCalibur. A total of 20,000 events per sample were analyzed. The investigations were performed in triplicate.
A sample of cells from each Eppendorf tube was subjected to the MTT test (described under 1.4) to determine microscopically whether the cells were viable. In vitro CT of the cell pellets was performed with a Somatom Sensation 16 (Siemens) which is used for routine clinical investigations.
Cells were incubated for 20 minutes with each of the conjugates dissolved in 0.1% DMSO/PBS at 260 μm. The cells were also incubated with TIBA and both of the non-TIBA-containing conjugates (3 and 4) separately in 0.1% DMSO/OBS at 260 μm. Both TIBA and the conjugates were dissolved in 0.1% DMSO/PBS at 260 μm for incubation due to the insolubility of TIBA (but not the conjugates) in pure PBS. As controls, the cells were incubated with PBS alone, 0.1% DMSO/PBS alone, and TIBA alone (260 μm in 0.1% DMSO/PBS).
The detection of phosphatidyl serine in the outer membrane leaflet of apoptotic cells was performed with the Annexin-V-Alexa™-568-reagent according to manufacturer's protocol (Roche Molecular Biochemicals, Indianapolis, USA). The confocal laser-scanning microscopy was performed on an inverted LSM 510 laser-scanning microscope (Carl Zeiss, Jena, Germany) (objectives: LD Achroplan 40×0.6, Plan Neofluar 20×0.50, 40×0.75). For fluorescence excitation, the 488 nm line of an argon-ion laser and the […] line of a helium-neon laser with appropriate beam splitters and barrier filters were used for FITC and Alexa respectively. Superimposed images of FITC- and Alexa-stained samples were created by overlaying coincident views. All measurements were performed on living, non-fixed cells.
Human malignant LN18 and U373 glioma cells were cultivated in four-well plates (NUNC, Wiesbaden, Germany) (about 300,000 cells per well) as described under 1.5. […] The cells were also coincubated either with CIBA, FIBA or TBPI as well as the NLS-FITC conjugate 3 (each 260 μM). As a control cells were used which were only incubated either with CIBA, FIBA or TBPI (260 μM in PBS) alone. After the incubation the cells were washed three times with PBS and in the following again incubated in Ready Mix Medium. The FITC-labelled conjugates and the Alexa-Annexin for the detection of phosphatidylserine as a signal of the cell death were localized with the confocal laser microscopy (CLSM) as in 1.6.1. All measurements were performed on living cells.

Data set [3] deals with human malignant LN18 glioma cells. Briefly: Uptake/staining of cells by FITC-labelled conjugates (CLSM, FACS, semi-thin sections). The class given is cell-based. To be noted: 20 min; for stained cells: 260 μM in PBS; for nuclear staining of cells (CLSM), in words: 260 μM. The procedure: The human malignant U373 and LN18 glioma cells were cultivated in 75 cm^2 culture flasks (Corning Costar) (70% confluency) under the conditions as described under 1.4, detached from the flask bottom with Accutase™ (PAA Laboratories) and in the following distributed on Eppendorf tubes (Eppendorf, Hamburg, Germany) (6×10^6 per tube). The cells in the first tube serve as a control (only PBS buffer only). The cells in the other ten tubes were each incubated with benzoic acid (BA), monoiodobenzoic acid (MIBA) or diiodobenzoic acid (DIBA) alone (260 μM), conjugate 3 alone (260 μM), conjugate 3 plus either BA, MIBA or DIBA (260 μM), respectively, and the conjugates 9, 10, and 11 alone. (260 μM).
After an incubation of 20 minutes at 37° C./5% CO2 the cells were washed three times with PBS buffer and centrifuged at 800 rpm (rounds per minute) for 5 minutes. The fluorescence was measured in Becton Dickinson FACSCalibur as described under 1.4. The computer tomography was performed as described under 1.5.1. The examinations were repeated two times. […]
The FACS analysis was performed as described under 1.4. The assay was repeated two times.
For the CT and FACS examinations human LN18 and U373 glioma cells were cultivated in 75 cm^2 culture flasks (70% confluency) (conditions as described under section 1). Accutase™ (PAA Laboratories) was added to detach the cell from the culture bottom. The cells were collected and then distributed on Eppendorf-tubes (6×10^6 cells per tube). […] The next three tubes were used for the coincubation of the cells either with trichlorobenzoic acid (TCBA), trifluorobenzoic acid (TFBA) or tribromophenyl Isocyanat (TBPI) and the NLS-FITC-conjugate 3 (260 μM). As control cells were used which were only either incubated with CIBA, FIBA, TBPI (in each case 260 μM in PBS) or with PBS-buffer (native control) alone. […] The computer tomography and FACS analysis of the cell centrifuges were performed as described in 1.5.1 or 1.4, respectively for three times.
All measurements were performed on living cells.
All measurements were performed on living cells in triplicates.
A part of the cells which were stained for the FACS analysis, was fixed by paraformaldehyl with 2% Agar, dehydrogenized in ethanol, embedded in Lowicryl K4M (Polysciences, Eppelheim, Germany) and according to the information of the manufacturer UV-polymerised at room temperature. Semi-thin sections (about 0.4 μm) were cut and evaluated by means of fluorescence microscopy.

Entries after “also recorded” stand apart in the source; their conditions may differ.

As to “PKKKRKVK(FITC)GGK (FITC, GGK linker) [conjugate 3, FITC-labelled correct NLS of the SV 40 T antigen without TIBA]”, the “cell death / vitality (annexin-V-Alexa 568, propidium iodide)” value in data set [1] was “remain vital; also recorded: did not show any signs of cell death; also recorded: without a sign of cell dead”. Also, in data set [2] (20 min), the “binding of annexin-V-Alexa 568 reagent (phosphatidyl serine) / cytotoxic effects” value is recorded as “did not result in binding” and the “cytotoxic effects / signs of cell death” value was “did not show any signs of cell death; also recorded: without a sign of cell dead”. Also, the “binding of annexin-V-Alexa 568 reagent / cell viability” value in data set [2] (conjugate co-incubated with free TIBA (260 μM)) was “fails to result in binding; also recorded: did not result in any changes”. In addition, the “cell viability / cell death” value in data set [2] (non-TIBA conjugates, 26 μM, 260 μM and 2.6 mM) is listed as “No cell death”. Further, in data set [3], the stained cells was found to be 9% and the “nuclear staining of cells (CLSM), in words” value was “nuclear staining of few cells; also recorded: does only stain the nucleus of few cells”.

Regarding “PKKKRKVK(FITC)GGK(BA) (FITC, GGK linker, benzoic acid) [conjugate 9, FITC-labelled NLS of the SV 40 T antigen with non-iodized benzoic acid]”, the “cell death / vitality (annexin-V-Alexa 568, propidium iodide)” value in data set [1] is listed as “remain vital; also recorded: no signs of cell death; also recorded: remain viable”. For the same substance, the “cytotoxic effects / signs of cell death” value in data set [2] (20 min) is “no signs of cell death”. Also, in data set [3], the stained cells worked out at 9% and the “nuclear staining of cells (CLSM), in words” value was “nuclear staining of few cells; also recorded: the staining rate did not increase”.

Regarding “PKKKRKVK(FITC)GGK(TIBA) (FITC, GGK linker, TIBA) [conjugate 1]”, the “cell viability (MTT formazan, propidium iodide uptake)” value in data set [2] (26 μM, 20 min) is reported as “living cells; also recorded: no signs of cell death”. The “cellular morphology, side scatter versus forward scatter FACS” value in data set [2] (26 μM, compared to PBS controls) is on record as “no changes in the cellular morphology”. Besides, in data set [2] (20 min), the “binding of annexin-V-Alexa 568 reagent (phosphatidyl serine) / cytotoxic effects” value is “binding of annexin-V-Alexa™ 568 reagent was found; also recorded: Most of these cells show the expression of phosphatidyl serine in the outer membrane leaflet”.
